Measurements from patent publication US10369133B2, “Immunosuppressive compounds and therapeutics” (UNIVERSITY OF TENNESSEE RESEARCH FOUNDATION, priority 2013, dated 2019).
Where “and” joins values, the source holds several entries; their conditions need not be identical. Equal values may be shown once.

Key:
[1] = system: INS-1E cells; experiment: TUNEL assay of INS-1E cells; format: cell-based; conditions: 20 μM
Procedure: (§1) Results are presented as the mean±S.D., n=3. […] Apoptotic cells were stained in dark (arrows). […] Islet was collected and dispersed with 0.25% Trypsin/EDTA into single cell suspension. P3 indicated the percentage of apoptotic cells. All experiments were performed in triplicates. Results are presented as the mean±SD. *p<0.05 as determined by an unpaired Student's t-test, n=6.
(§2) The apoptosis of INS-1E cells was analyzed using terminal deoxynucleotidyl transferase dUTP nick end labeling (TUNEL). Briefly, following JP-3-110 treatment for 48 h and cytokine cocktail treatment for additional 48 h, INS-1E cells were characterized by the DeadEnd™ Colorimetric TUNEL system (Promega, Madison, Wis., USA), in which fragmented DNA from apoptotic cells was labeled with biotinylated nucleotide and detected using hydrogen peroxide and diaminobenzidine. For human islets, following treatment with JP-3-110 and cytokines, human islets were digested with 0.25% trypsin/EDTA into a single-cell suspension, stained with the Annexin V-FITC Apoptosis Detection Kit (Abcam, Cambridge, Mass.) and analyzed with flow cytometry. Annexin V binds to phosphatidylserine on the cell surface, which is a feature found in apoptotic cells. Fluorescent intensity was analyzed using CellQuest software (BD Bioscience, Franklin Lakes, N.J.). […]
(§3) We then determined the conjugation with TNP can reduce the pro-apoptotic effect of MPA. […]

[2] = system: human islets; experiment: Annexin V-FITC flow cytometry of apoptotic cells in human islets; format: cell-based; conditions: 20 μM, 5 days coculture
Procedure: as §1, §2, §3

[3] = system: INS-1E cells; experiment: Caspase 3 activity in INS-1E cells (Caspase-Glo 3); format: cell-based; conditions: 20 μM (each), 2 days
Procedure: as §1
A cytokine cocktail (5 ng/ml TNFα and 5 ng/ml IL-1β) was used to mimic the in vivo challenge to the INS-1E cells and human islets by the inflammatory cytokines. Caspase-Glo 3 assay kits were used to analyze caspase 3 as per the manufacturer's protocol (Promega, Madison, Wis.). This assay kit provides a proilluminescent caspase substrate, DEVD, that, when cleaved by caspases, will release luciferin to quantitatively determine caspase concentration. […] The contents were then transferred into culture tubes, and luminescence was determined using a luminometer (Berthold, Germany).
We then determined the conjugation with TNP can reduce the pro-apoptotic effect of MPA. […] We first measured the caspase 3 activities of insulin-producing INS-1E cells under the stimulation of MPA alone, or MPA with free TNP, or JP-3-110 (MPA conjugated with TNP). […]

[4] = Hydrolytic stability of JP-3-110 aqueous solution by HPLC; format: physicochemical; conditions: aqueous solution (0.4 mg/mL) stored in 4° C. for 1 week
Procedure: The peak at 2 minutes was denoted as MPA degraded from JP-3-110.
(§4) Quinic acid amide analog TNP was synthesized as described before. See Zeng et al., 2009, Bioorganic & Medicinal Chemistry Letters, 19:5458-5460. JP-3-110 was synthesized by conjugating TNP with MPA and the structure of JP-3-110 was confirmed by 1H NMR. FIG. 1B. […] FIGS. 7A-7D. To improve solubility, the inventors conceived to introduce aqueous solubility enhancing groups such as ionizable groups —CO2H, —SO3H or amino groups, sugars at positions R1, R2 and/or R10 of Formulas II and III. Such introduction would require routine skills. The ester bond of JP-3-110 is susceptible to hydrolytic degradation, releasing TNP and MPA as two single drugs. More than 40% of JP-3-110 in the aqueous solution will be degraded when stored in 4° C. for 1 week (FIGS. 9A-9C).

[5] = system: human CD3+ T cells; experiment: Mixed lymphocyte reaction: proliferation of PHA-stimulated T cells; format: cell-based; conditions: PHA 1 μg/mL; 5 μM; in 4 days
Procedure: Briefly, human peripheral blood mononuclear cells PBMCs were isolated from human buffy coat using Ficoll-Paque. […] Results are presented as the mean±S.D., n=6.
PBMCs were isolated using Ficoll Paque. T cells were isolated from PBMCs using Dynabeads for. T cells were stimulated with PHA (1 μg/ml) for 24 h alone or in the presence of TNP (5 μM) or JP-3-110 (5 μM) for additional 4 days. The total number of PBMCs was measured using T4 Automatic Cell Counter (Nexcelom, Lawrence, Mass.). The extent of T cell activation was determined by measuring the level of IL-2, IL-2sRa, TNFα and IFN-γ in the medium using ELISA at indicated time.
Mixed lymphocytes reaction was used to determine the immunosuppressive effects of MPA and JP-3-110. T cells were purified using dynabeads from peripheral blood mononuclear cells (PBMCs), which were initially isolated from human buffy coat (FIG. 8A). […] The levels of IL-2, IL-2sRa, TNFα and IFNγ were detected by ELISA to study the effects of JP-3-110 and MPA on T cell activation.

[6] = Aqueous solubility of JP-3-110 by HPLC (saturated water solution); format: physicochemical
Procedure: The column was Inertsil ODS-3, 250×4.6 mm, 5 μm. […] From top to bottom, 0.2, 2, 20, 200, 2000 μg/mL of JP-3-110 in acetonitrile (ACN).
as §4

[7] = system: NF-κB; experiment: NF-κB SEAP reporter gene assay in INS-1E cells; format: cell-based, rat; conditions: for NF-κB activities in INS-1E cells: printed "at 504" (FIG. 2B: 5 μM), cytokine cocktail 10 ng/mL TNFα, 5 ng/mL IL-1β, 10 ng/mL IFN-γ, 24 hours
Procedure: Briefly, a plasmid construct containing NF-kB promoter and SEAP gene was transferred into INS-1E cells by lipofectamine. SEAP was then expressed and secreted into culture supernatant and allowed […] detection using a substrate PNPP under 405 nm. […] NF-kB activity was measured 24 hours after addition of cytokine cocktail (10 ng/mL TNFα, 5 ng/mL IL-1β and 10 ng/mL IFN-γ) alone or with JP-3-110 (5 μM) or TNP (5 μM) or MPA (5 μM). Blank, no cytokine stimulation. Cyt, cytokine cocktail. Results are presented as the mean±S.D., n=3.
INS-1E cells which were stably transfected with the SEAP gene containing the response-element for NF-κB were used to screen for anti-inflammatory activity. Briefly, 10^6 cells/well were seeded overnight followed by treatment with 10 ng/mL human recombinant TNFα and either TNP or hybrid drug JP-3-110 (1 μM). SEAP activity was measured 18 h later in supernatant samples (50 µL) using the NF-κB SEAPorter™ Assay Kit (IMGENEX, San Diego, Calif.) and a microplate luminometer. SEAP activity was normalized to the total protein content.

In the case of CCCCNC(=O)[C@]1(O)C[C@@H](O)[C@@H](O)[C@H](OC(=O)CC/C(C)=C/Cc2c(OC)c(C)c3c(c2OC(C)=O)C(=O)OC3)C1 [JP-3-110, (1R,2R,3R,5S)-5-(butylcarbamoyl)-2,3,5-trihydroxycyclohexyl (E)-6-(4-acetoxy-6-methoxy-7-methyl-3-oxo-1,3-dihydroisobenzofuran-5-yl)-4-methylhex-4-enoate], the “apoptotic cell death (TUNEL)” value [1] is reported as “effectively reversed”, the “apoptotic cells in human islets (annexin V)” value [2] is reported as “significantly reduced the percentage of apoptotic cells” and the “caspase 3 activity” value [3] is reported as “effectively reversed the elevation of caspase 3 activity”. The “JP-3-110 degraded in aqueous solution” value [4] was “More than 40%”, the “proliferation of T cells” value [5] was “equally potent as MPA” and the “solubility class according to USP solubility criteria” value [6] was “practically insoluble”. The solubility ([6]; thermodynamic from solid, by HPLC) was 480 µg/mL and 800 µM, the “reduction in NF-κB activities compared among the three groups” value ([7]; MPA, TNP and JP-3-110 compared, cytokine cocktail) was “most reduction” and the “NF-κB activities in INS-1E cells” value [7] was “significantly reduced”.

In the case of COc1c(C)c2c(c(O)c1C/C=C(\C)CCC(=O)O)C(=O)OC2 [MPA, mycophenolic acid, reference compound], the “apoptotic cell death (TUNEL)” value [1] is reported as “apoptotic cell death”, the “apoptotic cells in human islets (annexin V)” value [2] is reported as “induced substantial apoptotic cell death” and the “caspase 3 activity” value [3] is reported as “elevation of caspase 3 activity”. For the same compound, the “proliferation of T cells” value [5] was “suppress the proliferation of T cells” and the “NF-κB activities in INS-1E cells” value [7] was “significantly reduced”.
